Data reported in PMC10745882, “Investigation of Drug-Interaction Potential for Arthritis Dietary Supplements: Chondroitin Sulfate, Glucosamine, and Methylsulfonylmethane” (Molecules, 2023).

Tests used:
CYP1A2 = target: T1, CYP1A2 (Homo sapiens, UniProt P05177); assay: CYP inhibition assay in human liver microsomes (LC-MS/MS cocktail), phenacetin to acetaminophen; assay type: in vitro ADME
T1 construct: Pooled human liver microsomes were purchased from BD Gentest; tissue BD Gentest; host or cells: pooled human liver microsomes
T1 sequence (P05177 1-516): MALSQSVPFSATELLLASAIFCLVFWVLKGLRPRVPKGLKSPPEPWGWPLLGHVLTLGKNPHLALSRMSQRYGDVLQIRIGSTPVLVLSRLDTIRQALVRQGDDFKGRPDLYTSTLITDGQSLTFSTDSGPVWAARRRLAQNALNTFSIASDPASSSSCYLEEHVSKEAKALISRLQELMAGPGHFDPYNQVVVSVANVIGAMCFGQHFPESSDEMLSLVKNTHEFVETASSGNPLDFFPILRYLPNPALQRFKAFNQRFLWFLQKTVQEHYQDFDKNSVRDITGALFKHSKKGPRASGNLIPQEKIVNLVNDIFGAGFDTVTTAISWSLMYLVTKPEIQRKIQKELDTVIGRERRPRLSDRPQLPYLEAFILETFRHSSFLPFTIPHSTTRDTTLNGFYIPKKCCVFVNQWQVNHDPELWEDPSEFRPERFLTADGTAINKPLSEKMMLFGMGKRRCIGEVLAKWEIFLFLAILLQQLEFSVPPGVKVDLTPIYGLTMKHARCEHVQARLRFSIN
Method: (§1) For the experimental method, the reference method was used. Briefly, incubation mixtures were composed of 0.5 mg/mL human liver microsomes; varying concentrations of CS in DW (0.1, 0.3, 1, 3, 10, 30, 100, and 200 µM) or MSM in DW (0.1, 0.3, 1, 3, 10, 30, 100, 300, and 1000 µM) or GCS in DMSO (0.1, 0.3, 1, 3, 10, 30, 100, 300, and 1000 µM); a substrate mixture in DMSO (40 µM phenacetin for CYP1A2; 2.5 µM coumarin for CYP2A6; 80 µM bupropion for CYP2B6; 10 µM diclofenac for CYP2C9; 80 µM [±]-mephenytoin for CYP2C19; 5 µM dextromethorphan for CYP2D6; 2.5 µM midazolam and 30 µM testosterone for CYP3A4); and an NADPH generating system (NGS; 0.1 M glucose-6-phosphate, 10 mg/mL β-NADP^+, and 1 U/mL glucose-6-phosphate dehydrogenase) in a total volume of 200 µL potassium phosphate buffer (0.1 M, pH 7.4). The reaction mixture, excluding NGS, underwent pre-incubation at 37 °C for 5 min, followed by further incubation with NGS for 30 min in a water bath. Well-established selective CYP inhibitors were employed as positive controls (40 µM ketoconazole for CYP3A4, 50 µM furafyllin for CYP1A2, 10 µM quinidine for CYP2D6, 125 µM ticlopidine for CYP2C19 and CYP2B6, 10 µM 8-methoxsalen for CYP2A6, and 10 µM sulfaphenazole for CYP2C9). Post incubation, the reaction was halted by adding 50 µL ice-cold 1% formic acid acetonitrile. After centrifugation at 13,200 rpm for 5 min, the supernatant was collected from the sample and subjected to analysis via an LC-MS/MS system. All experiments were performed in triplicate.
(§2) For the experimental method, the reference method was used. The LC-MS/MS system utilized in this study consisted of an Agilent 1260 binary pump HPLC system coupled with the Agilent 6460 Triple Quadrupole mass spectrometer (Agilent Technologies, Santa Clara, CA, USA), featuring an electrospray ionization source. Chromatographic separation was achieved using a Fortis C8 column (2.1 × 100 mm, 5.0 µm; Fortis Technologies Ltd., Neston, UK). The HPLC mobile phases comprised (A) 0.1% formic acid and (B) 0.1% formic acid in 90% acetonitrile. A gradient elution method was employed with an initial solvent B concentration of 15% and a flow rate of 0.25 mL/min. […] The total run time was 11.0 min, and the injection volume was 5 µL. Mass detection was conducted in the positive ion mode using multiple reaction monitoring (MRM). Specific MRM transitions for each analyte are detailed in Table S4.

CYP2B6 = target: T2, CYP2B6 (Homo sapiens, UniProt P20813); assay: CYP inhibition assay in human liver microsomes (LC-MS/MS cocktail), bupropion to OH-bupropion; assay type: in vitro ADME
T2 construct: Pooled human liver microsomes were purchased from BD Gentest; tissue BD Gentest; host or cells: pooled human liver microsomes
T2 sequence (P20813 1-491): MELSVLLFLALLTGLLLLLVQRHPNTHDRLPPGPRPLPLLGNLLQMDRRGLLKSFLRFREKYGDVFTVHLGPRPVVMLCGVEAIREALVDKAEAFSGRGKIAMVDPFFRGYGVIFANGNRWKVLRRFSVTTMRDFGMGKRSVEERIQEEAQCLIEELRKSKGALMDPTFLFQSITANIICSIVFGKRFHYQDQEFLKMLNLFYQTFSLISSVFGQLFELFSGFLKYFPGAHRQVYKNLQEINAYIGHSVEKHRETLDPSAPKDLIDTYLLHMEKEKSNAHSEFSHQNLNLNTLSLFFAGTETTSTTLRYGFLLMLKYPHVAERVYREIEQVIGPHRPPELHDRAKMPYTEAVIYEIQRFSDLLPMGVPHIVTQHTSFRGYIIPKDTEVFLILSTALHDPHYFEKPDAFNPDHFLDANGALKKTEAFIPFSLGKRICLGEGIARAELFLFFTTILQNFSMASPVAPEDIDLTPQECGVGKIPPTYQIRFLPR
Method: as §1, §2

CYP2C9 = target: T3, CYP2C9 (Homo sapiens, UniProt P11712); assay: CYP inhibition assay in human liver microsomes (LC-MS/MS cocktail), diclofenac to 4-OH-diclofenac; assay type: in vitro ADME
T3 construct: Pooled human liver microsomes were purchased from BD Gentest; tissue BD Gentest; host or cells: pooled human liver microsomes
Method: as §1, §2

[1] = tested on: seven CYP isozymes (CYP1A2, CYP2A6, CYP2B6, CYP2C9, CYP2C19, CYP2D6, CYP3A4); assay: CYP inhibition assay in human liver microsomes, statements on all tested isozymes; assay type: in vitro ADME
Method: as §1
For the experimental method, the reference method was used. The LC-MS/MS system utilized in this study consisted of an Agilent 1260 binary pump HPLC system coupled with the Agilent 6460 Triple Quadrupole mass spectrometer (Agilent Technologies, Santa Clara, CA, USA), featuring an electrospray ionization source. Chromatographic separation was achieved using a Fortis C8 column (2.1 × 100 mm, 5.0 µm; Fortis Technologies Ltd., Neston, UK). The HPLC mobile phases comprised (A) 0.1% formic acid and (B) 0.1% formic acid in 90% acetonitrile. […]

[2] = parameters: method as in doi:10.4172/2155-9600.1000748, PMID 16168682, PMID 19912983; settings: common daily dose 1500 mg/day; cited from earlier work
[3] = parameters: method as in PMID 25417766; settings: rats; 1:4 (paracetamol:GCS) ratio; cited from earlier work
[4] = parameters: method as in PMID 16942821, PMID 37489348, PMID 31331587; settings: typical doses as monotherapy; cited from earlier work

T3 sequence (P11712 whole entry): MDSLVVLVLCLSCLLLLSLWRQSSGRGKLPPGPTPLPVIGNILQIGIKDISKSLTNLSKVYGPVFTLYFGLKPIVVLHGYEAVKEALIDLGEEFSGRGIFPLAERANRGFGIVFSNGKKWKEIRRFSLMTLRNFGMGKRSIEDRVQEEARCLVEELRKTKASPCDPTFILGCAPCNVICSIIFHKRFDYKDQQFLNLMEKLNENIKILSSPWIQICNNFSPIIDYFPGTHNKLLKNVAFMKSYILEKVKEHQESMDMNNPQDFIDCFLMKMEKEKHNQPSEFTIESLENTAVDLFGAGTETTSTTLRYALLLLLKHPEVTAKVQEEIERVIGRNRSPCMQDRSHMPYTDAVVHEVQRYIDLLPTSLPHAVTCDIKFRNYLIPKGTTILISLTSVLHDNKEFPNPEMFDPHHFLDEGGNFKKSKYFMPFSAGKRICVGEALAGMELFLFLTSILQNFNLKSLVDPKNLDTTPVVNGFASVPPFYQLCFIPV

- Remaining Activities (% of Control, n = 3) (CYP1A2; test substance 0.3 μM): 110.2 ± 20.5 % of Control
- Remaining Activities (% of Control, n = 3) (CYP1A2; test substance 1 μM): 103.1 ± 1.5 % of Control
- Remaining Activities (% of Control, n = 3) (CYP1A2; test substance 3 μM): 101.1 ± 7.5 % of Control
- Remaining Activities (% of Control, n = 3) (CYP1A2; test substance 10 μM): 94.2 ± 1.8 % of Control
- Remaining Activities (% of Control, n = 3) (CYP1A2; test substance 30 μM): 94.1 ± 3.0 % of Control
- Remaining Activities (% of Control, n = 3) (CYP1A2; test substance 100 μM): 97.2 ± 3.7 % of Control
- Remaining Activities (% of Control, n = 3) (CYP1A2; test substance 300 μM): 86.7 ± 2.8 % of Control
- Remaining Activities (% of Control, n = 3) (CYP1A2; test substance 1000 μM): 82.5 ± 12.0 % of Control
- Remaining Activities (% of Control, n = 3) (CYP2B6; test substance 0.3 μM): 121.0 ± 11.6 % of Control
- Remaining Activities (% of Control, n = 3) (CYP2B6; test substance 1 μM): 116.2 ± 5.8 % of Control
- Remaining Activities (% of Control, n = 3) (CYP2B6; test substance 3 μM): 114.3 ± 3.5 % of Control
- Remaining Activities (% of Control, n = 3) (CYP2B6; test substance 10 μM): 108.2 ± 3.1 % of Control
- Remaining Activities (% of Control, n = 3) (CYP2B6; test substance 30 μM): 107.8 ± 1.3 % of Control
- Remaining Activities (% of Control, n = 3) (CYP2B6; test substance 100 μM): 111.2 ± 2.3 % of Control
- Remaining Activities (% of Control, n = 3) (CYP2B6; test substance 300 μM): 105.6 ± 1.8 % of Control
- Remaining Activities (% of Control, n = 3) (CYP2B6; test substance 1000 μM): 103.5 ± 9.2 % of Control
- Remaining Activities (% of Control, n = 3) (CYP2C9; test substance 0.3 μM): 115.5 ± 15.2 % of Control
- Remaining Activities (% of Control, n = 3) (CYP2C9; test substance 1 μM): 108.7 ± 1.7 % of Control
- Remaining Activities (% of Control, n = 3) (CYP2C9; test substance 3 μM): 109.2 ± 2.4 % of Control
- Remaining Activities (% of Control, n = 3) (CYP2C9; test substance 10 μM): 104.0 ± 2.3 % of Control
- Remaining Activities (% of Control, n = 3) (CYP2C9; test substance 30 μM): 105.8 ± 2.7 % of Control
- Remaining Activities (% of Control, n = 3) (CYP2C9; test substance 100 μM): 101.2 ± 4.8 % of Control
- Remaining Activities (% of Control, n = 3) (CYP2C9; test substance 300 μM): 97.2 ± 2.8 % of Control
- Remaining Activities (% of Control, n = 3) (CYP2C9; test substance 1000 μM): 91.1 ± 10.1 % of Control
- inhibitory effects on CYP1A2, CYP2A6, CYP2B6, CYP2C9, CYP2C19, CYP2D6, and CYP3A4 [1]: no inhibitory effects
SMILES: N[C@H]1C(O)O[C@H](CO)[C@@H](O)[C@@H]1O (some centres unmarked) [GCS, glucosamine]
- maximum plasma concentrations [2]: ~9 µM
- paracetamol's AUC when co-administered with GCS [3]: increase
- paracetamol's maximum plasma concentration when co-administered with GCS [3]: increase
- adverse effects in clinical trials [4]: do not exhibit significant adverse effects
